Experiments:
human macrophages = assay: Real-time analysis of phagocytosis of E. coli by human macrophages; assay type: cell-based; settings: 1 nM each; for rank of increase in macrophage phagocytosis among individual SPMs: individually
Procedure: Human peripheral blood mononuclear cells from deidentified healthy human volunteers from the Children's Hospital Boston blood bank were isolated by density-gradient, Ficoll-Histopaque isolation, which was followed by monocyte purification. The monocytes were then cultured for 7 days in RPMI 1640, 10% fetal calf serum (FCS) and were differentiated into macrophages through culturing with granulocyte-macrophage colony-stimulating factor (GM-CSF, 20 ng/ml).
Real-time imaging of human macrophages was performed by plating the cells (50,000 cells/well in PBS++) onto 8-well chamber slides. The chamber slides were kept in a Stage Top Incubation system for microscopes equipped with a built-in digital gas mixer and temperature regulator (TOKAI HIT model INUF-K14). A panel of SPMs (RvE1, RvD1, RvD5, LXB4, and MaR1; 1 nM each or in combination) was added to the macrophages for 15 min, which was followed by the addition of BacLight Green-labeled E. coli (at an E. coli:phagocyte ratio of 50:1). Images were then acquired every 10 min for 3 hours at 37 °C with a Keyence BZ-9000 (BIOREVO) inverted fluorescence phase-contrast microscope (20× objective) equipped with a monochrome-color switching camera using BZ-II Viewer software (Keyence). Mean fluorescence intensity was quantified with a BZ-II Analyzer.

[1] = system: CREB and S6 in neutrophils and monocytes; assay: Single-cell analysis of intracellular signaling in whole blood leukocytes; assay type: cell-based, human
E. coli = assay: Whole blood bacterial killing during coagulation; assay type: cell-based; settings: BAI 200 μM, 24 h
Procedure: FIG. 10 illustrates the inhibitor of SPM formation BAI reduces bacterial killing. Freshly drawn human peripheral blood (4 mL) was placed in silicone-coated tubes at 37° C. for 24 h and was either stopped by snap freezing for LC-MS/MS, or supernatants were placed on LB agar plates and incubated overnight at 37° C. before enumeration of bacterial colonies. (A) Bacterial survival and (B) SPM in human peripheral blood (2.0 mL) incubated with E. coli (7×10^8 CFU) in the presence or absence of a LOX inhibitor (BAI) 200 μM for 24 h; 37° C. (n=4 individual donors). Data are means±SEM; *P<0.05, ****P<0.0001 for +BAI vs. Coag using ratio t-test.
Fresh human blood (2.0 ml) without anticoagulant was incubated with E. coli (˜7×108) in the presence or absence of 200 µM baicalein (a LOX inhibitor; Sigma) and allowed to coagulate at 37° C. for 24 hours. Serum from blood were diluted in PBS on ice and aliquots were placed on LB agar and incubated overnight in a 37° C. incubator. Colonies were enumerated.

[2] = system: SPM production in human whole blood; assay: SPM and eicosanoid production during coagulation with heparin, eptifibatide, ADA, celecoxib or BAI; assay type: cell-based
Procedure: FIG. 2 illustrates regulators of SPM formation in human blood. (A to E) Freshly drawn human peripheral blood (4 ml) containing heparin (10 U/ml) was placed in polypropylene tubes (A) whereas human peripheral blood without anticoagulant was placed in silicone-coated tubes (B to E) and incubated at 37° C. for the time course of 0 to 24 hours (see Example 1, Materials and Methods). The samples were then subjected to snap-freezing for extraction and LC-MS/MS analysis. (A) Concentrations of the members of the SPM cluster (identified in FIG. 1) in samples treated without (Coag.) or with heparin (10 U/ml) during the incubation period. Data are means±SEM of three individual donors. (B) Left: Combined concentrations of the total SPM cluster, prostaglandins, and thromboxanes after 24 hours of coagulation in the presence or absence of the αIIbβ3 inhibitor eptifibatide (Eptifib.; 20 μM). Middle: Clot volumes after 24 hours of coagulation of the indicated samples. Right: Representative clot images. Data are means±SEM of three individual donors. (C) Concentrations of total SPMs and of the indicated individual SPMs after 24 hours of coagulation in the presence or absence of 200 mU ADA. Data are means±SEM of three individual donors. *P<0.05, **P<0.01 by ratio t-test. (D) Top: LC-MS/MS measurements of adenosine concentrations in whole blood at the indicated time points during coagulation in the presence or absence of ADA. **P<0.01 when compared to the zero-hour time point. Bottom: Flow cytometric analysis of the percentage of neutrophil-platelet aggregates, which were defined as being double-positive for CD16 and CD42b, in whole blood allowed to coagulate for the indicated times in the absence (Coag.) or presence of ADA. Data are means±SEM of five individual donors. *P<0.05, **P <0.01 by student's t test. For dot plots and gating, see FIG. 7B. (E) MS/MS fragmentation profiles with diagnostic ions for the indicated SPMs identified in (C). (F) Left: PCA score plot. Red denotes +ADA for 1 hour; yellow, coagulation for 1 hour; green, coagulation for 24 hours; blue, +ADA for 24 hours. Right: PCA loading plot showing temporal clustering of the indicated mediators from three individual donors. Red denotes LM at 1 hour; blue denotes 24 hours with ADA).
FIG. 8 illustrates SPM formation in human blood clots being regulated by lipoxygenase activity. (A and B) Freshly drawn human peripheral blood (4 ml) was placed in silicone-coated tubes at 37° C. for 24 hours and coagulation was stopped by snap-freezing before LC-MS/MS analysis was performed. Concentrations of total SPMs, prostaglandins, and thromboxanes after 24 hours of coagulation (Coag.) in the presence or absence of (A) 100 μM indomethacin (Indo.) (n=six individual donors), (B) 500 nM celecoxib (CLX) or 20 μM BAI (n=three individual donors). […]

[3] = system: prostaglandin, thromboxane and SPM production in human whole blood; assay: LM metabololipidomics of human whole blood during coagulation in the presence of indomethacin; assay type: cell-based; settings: 100 μM indomethacin
Procedure: FIG. 8 illustrates SPM formation in human blood clots being regulated by lipoxygenase activity. (A and B) Freshly drawn human peripheral blood (4 ml) was placed in silicone-coated tubes at 37° C. for 24 hours and coagulation was stopped by snap-freezing before LC-MS/MS analysis was performed. Concentrations of total SPMs, prostaglandins, and thromboxanes after 24 hours of coagulation (Coag.) in the presence or absence of (A) 100 μM indomethacin (Indo.) (n=six individual donors), (B) 500 nM celecoxib (CLX) or 20 μM BAI (n=three individual donors). Data are means±SEM; *P<0.05 for +BAI vs. Coag; ****P<0.0001 for +Indo vs. Coag. using ratio t-test.
Human whole blood was transferred in 4-ml aliquots to negatively charged, silicone-coated 10-ml tubes (BD) without anticoagulant. For experiments with heparin, the heparinized blood was placed in 15-ml polypropylene tubes before incubation at 37° C. For LM profiling at designated times, all samples were immediately subjected to a workup procedure by which whole blood was snap-frozen in a dry ice/isopropanol bath and were returned to room temperature (×3 cycles) before undergoing centrifugation at 100,000 g at 4° C. Supernatants (and clots for select experiments; see FIG. 6) were collected and were subjected to LC-MS/MS LM metabololipidomics. […]

| Molecule | extent of phagocytosis of E. coli by human macrophages, individual SPMs (human macrophages) | intracellular signaling in neutrophils and monocytes [1] | further results |
| --- | --- | --- | --- |
| CCCCC[C@H](O)[C@H](O)/C=C/C=C/C=C\C=C\[C@@H](O)CCCC(=O)O [LXB4, lipoxin B4: (5S, 14R, 15S-trihydroxy-eicosa-6E, 8Z, 10E, 12E-tetraenoic acid)] | statistically significantly enhanced | activated CREB and S6 | rank of increase in macrophage phagocytosis among individual SPMs (human macrophages): greatest increases |
| CC/C=C\C/C=C\C[C@H](O)\C=C/C=C/C=C/[C@H](O)C/C=C\CCC(=O)O [Maresin 1, maresin 1 (7R, 14S-dihydroxy-docosa-4Z, 8E, 10E, 12Z, 16Z, 19Z-hexaenoic acid)] | statistically significantly enhanced | activated CREB and S6 |  |
| CC/C=C\C[C@H](O)/C=C/C=C\C=C\C=C\[C@@H](O)[C@@H](O)C/C=C\CCC(=O)O [RvD1, Resolvin D1 (7S, 8R, 17S-trihydroxy-docosa-4Z, 9E, 11E, 13Z, 15E, 19Z-hexaenoic acid)] | statistically significantly enhanced | activated CREB and S6 |  |
| CC/C=C\C[C@H](O)/C=C/C=C\C/C=C\C=C\[C@@H](O)C/C=C\CCC(=O)O [RvD5, Resolvin D5 (7S, 17S-dihydroxy-docosa-4Z, 8E, 10Z, 13Z, 15E, 19Z-hexaenoic acid)] |  | activated CREB and S6 |  |
| CC[C@@H](O)/C=C/C=C\C[C@@H](O)/C=C/C=C/C=C\[C@@H](O)CCCC(=O)O [RvE1, Resolvin E1 (5S, 12R, 18R-trihydroxy-eicosa-6Z, 8E, 10E, 14Z, 16E-pentaenoic acid)] | statistically significantly enhanced | activated CREB and S6 | rank of increase in macrophage phagocytosis among individual SPMs (human macrophages): greatest increases |
| O=c1cc(-c2ccccc2)oc2cc(O)c(O)c(O)c12 [baicalein] |  |  | increase in bacterial counts in the presence of the lipoxygenase inhibitor (E. coli; P<0.0001): > 10 fold; reduction in the abundances of members of the SPM cluster from coagulation (E. coli; with E. coli): > 80%; total amounts of SPMs ([2]; 20 μM BAI, 24 hours): reduced the total amounts of SPMs |
| COc1ccc2c(c1)c(CC(=O)O)c(C)n2C(=O)c1ccc(Cl)cc1 [indomethacin] |  |  | total SPM amounts compared to absence of inhibitor [3]: did not substantially change; inhibition at 100 µM ([3]; Homo sapiens, 24 hours vs. coagulation alone, read-out: inhibition of total prostaglandin and thromboxane production): > 99% |
| heparin |  |  | reduction of SPMs in total in blood containing heparin ([2]; heparin 10 U/ml): 98% |

From US11592453B2, “Personalized metabolomic profiling of specialized pro-resolving mediators” (THE BRIGHAM AND WOMEN'S HOSPITAL, INC., priority 2016, dated 2023)
